Reference: paper PMC6777825, “Differential scanning fluorimetric analysis of the amino-acid binding to taste receptor using a model receptor protein, the ligand-binding domain of fish T1r2a/T1r3” (PLoS ONE, 2019)
Read-outs that look alike come from different tables or passages of the source.

Tests used:
[1] = target: T1, T1r2a/T1r3 full-length receptor (Oryzias latipes, UniProt A0A173M094+A0A173M0G2); set-up: method as in PMID 28534491; conditions: ref [11]; cited from earlier work
[2] = target: medaka T1r2a/T1r3LBD (Oryzias latipes, UniProt A0A173M094+A0A173M0G2); assay: Differential scanning fluorimetry (DSF) thermal shift ligand-binding assay; set-up: species or system O. latipes; conditions: for ΔTm: average ± s.e.m., n = 4; for effect on thermal stability / Tm shift of T1r2a/T1r3LBD (in words): DSF, 0.1-10 mM amino acid
Procedure: The protein sample was prepared as described previously. Briefly, Drosophila S2 cells (Invitrogen) stably expressing C-terminal FLAG-tagged T1r2aLBD and T1r3LBD [11, 21] were cultured in ExpressFiveSFM (LifeTechnologies) for five days at 27 °C. The T1r2a/T1r3-LBD protein was purified from the culture medium by the use of ANTI-FLAG M2 Affinity Gel (SIGMA). The purified protein was dialyzed against the assay buffer (20 mM Tris-HCl, 300 mM NaCl, 2 mM CaCl2, pH 8.0).
The protein sample (~1 μg) was mixed with Protein Thermal Shift Dye (Applied Biosystems) and 10~10,000 μM concentration of each amino acid in 20 μL of assay buffer and loaded to a MicroAmpR Fast Optical 48-Well Reaction Plate (Applied Biosystems). Specifically, to minimize the changes of the chemical and optical condition, the amino acid solutions were prepared by the exact same buffer used for the final dialysis of the protein, followed by the re-adjustment of the pH to ~ 8.0 by addition of either NaOH or HCl, and mixed with the protein diluted with the same buffer.
Fluorescent intensity was measured by the StepOne Real-Time PCR System (Applied Biosystems). The temperature was raised from 25 °C to 99 °C with a velocity of 0.022 °C/sec. The reporter and quencher for detection were set as “ROX” and “none”, respectively. Apparent melting transition temperature (Tm) was determined by the use of the maximum of the derivatives of the melt curve (dFluorescence/dT) by Protein Thermal Shift Software version 1.3 (Applied Biosystems).
The apparent dissociation constant (Kd-app) derived from the DSF results was estimated based on Eq 1 proposed by Schellman, assuming that the unfolding of the protein is reversible: ΔTm=Tm−T0=TmT0R/ΔH^0ln(1+[L]/Kd-app) (1) where [L] is the ligand concentration; Tm and T0 are the apparent melting transition temperatures in the presence and absence of the ligand; R is the gas constant; ΔH^0 is the enthalpy of unfolding at T0, assuming that there are no significant variations under the tested conditions. If the melt curves show biphasic profiles, the second (or the right side) Tm values were adopted for calculation, as described in the Results section.
For multiple regression analyses shown in Fig 2B, the apparent Tm values determined at different ligand concentrations were fitted to Eq 1 by using KaleidaGraph (Synergy Software), assuming that the change of the dissociation constant accompanied by the Tm shift is negligible.

[3] = target: T1, T1r2a/T1r3 full-length receptor; assay: Ca2+-flux receptor response assay in Flip-In 293 cells stably expressing full-length T1r2a, T1r3 and Gα16-gust44; assay type: cell-based, O. latipes; conditions: for ΔRFU: average ± s.e.m.
Procedure: The Ca^2+-flux assay was performed using Flip-In 293 cell line (Life Technologies) stably expressing full-length T1r2a, T1r3, and Gα16-gust44 as described previously. The response stimulated by either 5 or 10 mM amino acid was represented asΔRFU (delta relative fluorescence unit) defined as the maximum fluorescence intensity induced by the addition of the amino acid, subtracted with that of an assay buffer in the absence of amino acid.

[4] = test system: T1r2a/T1r3LBD; set-up: method as in Nuemket, Yasui, et al. [11]; conditions: ref Nuemket, Yasui, et al. [11]; read-out: FRET EC50; cited from earlier work
[5] = cited from earlier work; for Hydropathy Index: hydrophobicity/hydrophilicity, ref Kyte & Doolittle, J. Mol. Biol., 157, 105 (1982); for pI: ref Handbook of Chemistry and Physics, CRC Press; for logKd_CW (polarity): transfer from cyclohexane to an aqueous solution, ref Radzicka & Wolfenden, Biochemistry, 27, 1664 (1988); for Es'c (steric effects) / πα (hydrophobicity) / HP (hydration potential): α-substituent group; for Es'c (steric effects) / πα (hydrophobicity): ref Akamatsu et al., J. Pharm. Sci., 83, 1026 (1994); for HP (hydration potential): ref Wolfenden et al., Biochemistry, 20, 849 (1981)
[6] = Tm at 8 or 9 ligand concentrations fitted to Eq 1 (Schellman), fitted parameter ± s.e., read-out: DSF Kd-app
[7] = from ΔTm at 10 mM via Eq 1, T0 326.1 K, ΔH0 72.1 kcal mol-1, read-out: Kd-app estimated at a single ligand concentration
[8] = log 1/Kd-app, converted from S1 Table values (10 mM; L-Ala 1 mM, L-Gln 0.1 mM)
[9] = 5 mM amino acid, n = 6 (n = 12 for L-glutamine)
[10] = estimated from ΔRFU at 5 mM by Hill equation, ΔRFUmax 104.3, read-out: EC50-est
[11] = estimated from ΔRFU at 10 mM by Hill equation, ΔRFUmax 104.3, read-out: EC50-est
[12] = from response at 5 mM, log 1/EC50-est
[13] = from response at 10 mM, log 1/EC50-est
[14] = read-out: Kd-app estimated at a single ligand concentration, from ΔTm at 0.1 mM via Eq 1, T0 326.1 K, ΔH0 72.1 kcal mol-1
[15] = read-out: Kd-app estimated at a single ligand concentration, from ΔTm at 1 mM via Eq 1, T0 326.1 K, ΔH0 72.1 kcal mol-1
[16] = read-out: Kd-app estimated at a single ligand concentration, from ΔTm at 10 mM via Eq 1, T0 326.1 K, ΔH0 72.1 kcal mol-1
[17] = from response at 10 mM, log 1/EC50-est, read-out: pEC50-est (converted)
[18] = from ΔTm at 0.1 mM via Eq 1, T0 326.1 K, ΔH0 72.1 kcal mol-1, read-out: Kd-app estimated at a single ligand concentration
[19] = from ΔTm at 1 mM via Eq 1, T0 326.1 K, ΔH0 72.1 kcal mol-1, read-out: Kd-app estimated at a single ligand concentration

T1 sequence (A0A173M0G2 entry or part of it): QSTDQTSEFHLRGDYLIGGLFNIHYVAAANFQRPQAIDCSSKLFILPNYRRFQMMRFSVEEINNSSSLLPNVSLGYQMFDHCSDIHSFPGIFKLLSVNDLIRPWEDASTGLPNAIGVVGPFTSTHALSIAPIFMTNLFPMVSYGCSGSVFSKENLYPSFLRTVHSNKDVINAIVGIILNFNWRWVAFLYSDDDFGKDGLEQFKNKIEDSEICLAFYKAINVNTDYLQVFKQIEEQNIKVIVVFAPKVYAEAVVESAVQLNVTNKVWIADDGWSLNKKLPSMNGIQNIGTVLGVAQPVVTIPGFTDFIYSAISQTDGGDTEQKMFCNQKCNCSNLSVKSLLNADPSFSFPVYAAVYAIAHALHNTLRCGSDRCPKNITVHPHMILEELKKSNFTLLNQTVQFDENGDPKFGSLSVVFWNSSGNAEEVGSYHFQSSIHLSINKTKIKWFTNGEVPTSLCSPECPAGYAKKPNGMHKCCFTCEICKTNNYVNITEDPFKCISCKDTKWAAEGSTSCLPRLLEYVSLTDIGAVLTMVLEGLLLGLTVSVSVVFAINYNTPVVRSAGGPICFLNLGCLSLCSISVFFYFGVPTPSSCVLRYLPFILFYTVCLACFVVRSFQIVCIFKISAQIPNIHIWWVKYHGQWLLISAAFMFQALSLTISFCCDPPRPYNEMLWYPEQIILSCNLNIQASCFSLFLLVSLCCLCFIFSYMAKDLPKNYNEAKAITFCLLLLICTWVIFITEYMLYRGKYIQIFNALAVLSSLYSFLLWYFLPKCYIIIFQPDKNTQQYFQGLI
T1 sequence (A0A173M094 entry or part of it): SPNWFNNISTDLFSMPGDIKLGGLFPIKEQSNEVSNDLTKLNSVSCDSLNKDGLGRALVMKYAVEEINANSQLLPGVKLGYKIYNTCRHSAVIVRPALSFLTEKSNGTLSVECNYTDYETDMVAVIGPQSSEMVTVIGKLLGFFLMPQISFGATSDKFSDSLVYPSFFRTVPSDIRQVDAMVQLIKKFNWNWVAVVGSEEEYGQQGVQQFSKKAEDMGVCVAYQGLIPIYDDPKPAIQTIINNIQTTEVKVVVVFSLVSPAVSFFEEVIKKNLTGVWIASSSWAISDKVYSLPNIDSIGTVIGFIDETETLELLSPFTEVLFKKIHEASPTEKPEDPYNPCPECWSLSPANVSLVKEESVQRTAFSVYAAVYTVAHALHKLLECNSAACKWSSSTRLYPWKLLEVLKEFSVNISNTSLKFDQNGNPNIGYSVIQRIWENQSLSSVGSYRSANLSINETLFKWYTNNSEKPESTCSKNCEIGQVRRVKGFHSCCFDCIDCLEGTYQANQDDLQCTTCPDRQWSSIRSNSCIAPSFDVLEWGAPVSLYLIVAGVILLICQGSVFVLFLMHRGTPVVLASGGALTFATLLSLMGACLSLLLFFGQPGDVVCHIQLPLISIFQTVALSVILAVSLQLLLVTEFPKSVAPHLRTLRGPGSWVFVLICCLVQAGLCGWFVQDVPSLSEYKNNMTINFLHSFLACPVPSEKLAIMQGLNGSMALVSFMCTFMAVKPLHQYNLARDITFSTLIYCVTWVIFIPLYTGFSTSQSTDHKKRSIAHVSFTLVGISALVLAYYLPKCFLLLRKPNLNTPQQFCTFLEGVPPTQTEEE
Sequence of medaka T1r2a/T1r3LBD (A0A173M094 entry or part of it): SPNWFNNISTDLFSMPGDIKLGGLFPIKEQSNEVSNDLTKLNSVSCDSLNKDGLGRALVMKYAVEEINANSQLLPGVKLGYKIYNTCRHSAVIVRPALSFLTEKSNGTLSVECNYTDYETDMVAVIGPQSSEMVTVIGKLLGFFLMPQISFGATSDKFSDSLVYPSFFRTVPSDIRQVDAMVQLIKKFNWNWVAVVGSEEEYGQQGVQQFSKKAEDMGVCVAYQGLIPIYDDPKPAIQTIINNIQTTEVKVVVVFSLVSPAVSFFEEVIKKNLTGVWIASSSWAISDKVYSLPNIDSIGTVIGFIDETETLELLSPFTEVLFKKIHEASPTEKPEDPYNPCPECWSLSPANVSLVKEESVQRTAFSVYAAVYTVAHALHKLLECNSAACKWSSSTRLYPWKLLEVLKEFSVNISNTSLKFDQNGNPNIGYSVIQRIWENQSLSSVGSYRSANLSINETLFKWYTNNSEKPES
Sequence of medaka T1r2a/T1r3LBD (A0A173M0G2 entry or part of it): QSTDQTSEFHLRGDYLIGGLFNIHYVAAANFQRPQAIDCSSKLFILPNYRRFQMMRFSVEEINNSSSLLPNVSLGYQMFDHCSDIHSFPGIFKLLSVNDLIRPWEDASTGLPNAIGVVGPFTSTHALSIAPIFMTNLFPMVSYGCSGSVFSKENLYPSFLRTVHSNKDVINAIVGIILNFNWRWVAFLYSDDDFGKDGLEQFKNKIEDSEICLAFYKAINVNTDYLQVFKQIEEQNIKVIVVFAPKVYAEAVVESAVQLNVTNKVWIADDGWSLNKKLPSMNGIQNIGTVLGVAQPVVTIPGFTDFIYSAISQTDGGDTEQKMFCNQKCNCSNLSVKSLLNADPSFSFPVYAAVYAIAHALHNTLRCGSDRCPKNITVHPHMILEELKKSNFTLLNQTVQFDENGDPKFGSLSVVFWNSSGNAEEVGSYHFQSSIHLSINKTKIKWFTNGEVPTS

ΔTm ([2]; 0.1 mM amino acid) | ΔTm ([2]; 1 mM amino acid) | ΔTm ([2]; 10 mM amino acid) | potency estimated from few doses [2, 7] | pKd-app [2, 8] | ΔRFU [3, 9] | ΔRFU ([3]; 10 mM amino acid, n = 6) | EC50 [3, 10] | EC50 [3, 11] | pEC50-est [3, 13] | potency estimated from few doses [2, 18] | Structure (SMILES) | Kd [2, 6] | EC50 [4] | Hydropathy Index [5] | pI [5] | logKd_CW (polarity) [5] | Es'c (steric effects) [5] | πα (hydrophobicity) [5] | HP (hydration potential) [5] | other results
 |  |  |  |  |  |  |  |  |  |  | NC(=O)CCC(N)C(=O)O (stereo in doubt) [D-glutamine] |  |  |  |  |  |  |  |  | full-length receptor response (in words) [1]: significantly weak responses
-0.04 ± 0.12 K | -0.15 ± 0.07 K | 5.08 ± 0.06 K | 2220 µM | 2.65 | 13.4 ± 3.45 | 46.2 ± 9.00 | 33800 µM | 12600 µM | 1.90 |  | NCC(=O)O [Gly, glycine] | 3570 ± 4090 µM | 6180 ± 3320 µM |  |  |  |  |  |  | pEC50-est [3, 12]: 1.47
6.26 ± 0.06 K | 10.80 ± 0.05 K | 13.6 ± 0.02 K | 119 µM |  | 104.3 ± 4.24 | 81.0 ± 4.64 |  | 2880 µM |  | 14.1 µM | NC(=O)CC[C@H](N)C(=O)O [L-Gln, L-glutamine] | 30.9 ± 5.8 µM | 11.5 ± 3.4 µM |  |  |  |  |  |  | increase of Tm (ΔTm), second Tm ([2]; 300 μM ligand): 8.7 ± 0.1 °C; potency estimated from few doses [2, 19]: 29.2 µM; Kd ([2]; log 1/Kd-app, converted from S1 Table values (10 mM; L-Ala 1 mM, L-Gln 0.1 mM), read-out: pKd-app (converted)): 14.1 µM; ΔRFU ([3]; 5 mM amino acid, n = 6 (n = 12 for L-glutamine), listed as L-glutamine): 104.3; EC50 [3, 17]: 2880 µM
-0.14 ± 0.03 K | -1.20 ± 0.03 K | 7.32 ± 0.06 K | 956 µM | 3.02 | 11.5 ± 2.07 | 33.5 ± 7.59 | 40500 µM | 21100 µM | 1.67 |  | N[C@@H](CO)C(=O)O [L-Ser] |  |  | -0.8 | 5.68 | 2.49 | -0.48 | -0.19 | -5.06 | pEC50-est [3, 12]: 1.39
-0.06 ± 0.09 K | -1.27 ± 0.08 K | 6.99 ± 0.09 K | 1080 µM | 2.97 | 3.20 ± 1.51 | 18.2 ± 6.01 |  | 47400 µM | 1.32 |  | C[C@@H](O)[C@H](N)C(=O)O [L-Thr] |  |  | -0.7 | 5.6 | 1.89 | -0.73 | 0.07 | -4.88 | 
0.11 ± 0.24 K | -0.77 ± 0.14 K | 7.85 ± 0.03 K | 793 µM | 3.10 | 3.89 ± 1.23 | 32.4 ± 7.56 |  | 22200 µM | 1.65 | 2630 µM | CC(C)[C@H](N)C(=O)O [L-Val] |  |  | 4.2 | 5.96 | -2.97 | -1.29 | 1 | 1.99 | 

Structure (SMILES) | ΔTm ([2]; 0.1 mM amino acid) | ΔTm ([2]; 1 mM amino acid) | ΔTm ([2]; 10 mM amino acid) | potency estimated from few doses [2, 7] | pKd-app [2, 8] | ΔRFU [3, 9] | ΔRFU ([3]; 10 mM amino acid, n = 6) | EC50 [3, 10] | EC50 [3, 11] | pEC50-est [3, 13] | potency estimated from few doses [2, 18] | Kd [2, 6] | EC50 [4] | Hydropathy Index [5] | pI [5] | logKd_CW (polarity) [5] | Es'c (steric effects) [5] | πα (hydrophobicity) [5] | HP (hydration potential) [5] | other results
C[C@H](N)C(=O)O [L-Ala, L-alanine] | 0.41 ± 0.09 K | 6.92 ± 0.03 K | 11.1 ± 0.02 K |  |  | 64.7 ± 12.8 | 90.8 ± 9.46 | 3060 µM | 1490 µM |  |  | 54.1 ± 24.5 µM | 141 ± 37 µM | 1.8 | 6 | -1.33 | -0.2 | 0.28 | 1.94 | effect on thermal stability / Tm shift of T1r2a/T1r3LBD (in words) [2]: exhibited large Tm shifts; Kd-app fold difference compared with FRET EC50 ([2]; Kd-app from 0.1 mM): 4.71 fold; Kd-app fold difference compared with FRET EC50 ([2]; Kd-app from 1 mM): 0.782 fold; Kd-app fold difference compared with FRET EC50 ([2]; Kd-app from 10 mM): 1.91 fold; potency estimated from few doses [2, 14]: 664 µM; potency estimated from few doses [2, 15]: 110 µM; potency estimated from few doses [2, 16]: 269 µM; EC50 ([3]; from response at 5 mM, log 1/EC50-est, read-out: pEC50-est (converted)): 3090 µM; EC50 [3, 17]: 1480 µM
N=C(N)NCCC[C@H](N)C(=O)O [L-Arg, arginine] | 0.45 ± 0.17 K | 6.98 ± 0.08 K | 11.0 ± 0.05 K |  |  | 68.2 ± 5.39 | 63.4 ± 9.85 |  |  |  |  |  | 190 ± 35 µM | -4.5 | 10.76 | 4.32 | -0.82 | -0.42 | -19.92 | Kd ([2]; DSF Kd-app, Tm at 8 or 9 ligand concentrations fitted to Eq 1 (Schellman), fitted parameter ± s.e.): 131 ± 66 µM; effect on thermal stability / Tm shift of T1r2a/T1r3LBD (in words) [2]: thermally stabilized the protein; Kd-app fold difference compared with FRET EC50 ([2]; Kd-app from 0.1 mM): 3.20 fold; Kd-app fold difference compared with FRET EC50 ([2]; Kd-app from 1 mM): 0.568 fold; Kd-app fold difference compared with FRET EC50 ([2]; Kd-app from 10 mM): 1.44 fold; Kd ([2]; pKd-app, log 1/Kd-app, converted from S1 Table values (10 mM; L-Ala 1 mM, L-Gln 0.1 mM)): 275 µM; potency estimated from few doses [2, 14]: 608 µM; potency estimated from few doses [2, 15]: 108 µM; potency estimated from few doses [2, 16]: 274 µM; EC50 ([3]; EC50-est, estimated from ΔRFU at 5 mM by Hill equation, ΔRFUmax 104.3): 2650 µM; EC50 ([3]; EC50-est, estimated from ΔRFU at 10 mM by Hill equation, ΔRFUmax 104.3): 6440 µM; EC50 ([3]; pEC50-est, from response at 5 mM, log 1/EC50-est): 2630 µM; EC50 ([3]; pEC50-est, from response at 10 mM, log 1/EC50-est): 6460 µM
N[C@@H](CCC(=O)O)C(=O)O [L-Glu, glutamate] | 0.55 ± 0.26 K | 0.48 ± 0.14 K | 7.06 ± 0.08 K | 1050 µM | 2.98 | 3.73 ± 1.63 | 30.3 ± 1.85 |  | 24400 µM | 1.61 | 488 µM | 422 ± 211 µM | 1070 ± 382 µM |  | 3.22 | 2.25 | -0.82 | 0.02 | -10.2 | potency estimated from few doses [2, 19]: 5700 µM
